Here are results for 25 compounds from patent US7064120B2, “Tricyclic pyridyl carboxamides and derivatives thereof tocolytic oxytocin receptor antagonists” (Wyeth, priority 2001, dated 2006).

The first experiment deals with T1, human vasopressin V2 receptor subtype (Homo sapiens, UniProt P30518).
T1 construct: host or cells: CHO cells, stably transfected (pZeoSV vector)
T1 sequence (P30518 whole entry): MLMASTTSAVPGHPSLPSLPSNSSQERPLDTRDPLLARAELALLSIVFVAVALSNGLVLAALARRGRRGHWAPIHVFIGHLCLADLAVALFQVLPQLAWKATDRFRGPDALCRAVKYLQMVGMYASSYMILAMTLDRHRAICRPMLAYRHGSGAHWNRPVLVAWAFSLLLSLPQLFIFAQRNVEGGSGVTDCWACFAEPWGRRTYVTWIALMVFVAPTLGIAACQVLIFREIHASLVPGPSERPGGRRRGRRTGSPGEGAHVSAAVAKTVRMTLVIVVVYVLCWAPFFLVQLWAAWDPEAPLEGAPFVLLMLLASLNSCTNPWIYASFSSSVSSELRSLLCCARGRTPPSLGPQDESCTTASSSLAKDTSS
In words: Vasopressin binding in CHO cell membranes expressing human vasopressin V2 subtype receptors ([3H]arginine vasopressin radioligand binding). The conditions noted are these: 100 nM. The procedure, abridged: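 Membranes from CHO cells stably expressing human V2 receptor (25 to 50 μg protein/well) incubated 60 min at room temperature with [3H]arginine vasopressin in Tris-HCl pH 7.4 buffer with MgCl2, BSA and protease inhibitors. Filtration, scintillation counting; percent inhibition at one concentration or IC50 (nM).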
Regarding `Cc1cc(C(=O)N2Cc3ccc(C(=O)N4CCN(c5ccncc5)CC4)n3Cc3ccccc32)ccc1-c1ccccc1C(F)(F)F` [Example 1], the “V2 % inhibition @ 100 nM” value is 18%. Usually inhibition stands for the drop in the measured response relative to a control, in per cent. The low end stands for a weak effect, the high end for a strong effect. On to `COc1ccccc1-c1ccc(C(=O)N2Cc3ccc(C(=O)N(C)CCc4ccccn4)n3Cc3ccccc32)cc1C` [Example 65, 10-[(2′-Methoxy-2-methyl-[1,1′-biphenyl]-4-yl)carbonyl]-N-methyl-N-[2-(2-pyridinyl)ethyl]-10,11-dihydro-5H-pyrrolo[2,1-c][1,4]benzodiazepine-3-carboxamide], for which the inhibition at 0.1 µM turned out to be 16%. With `Cc1ccccc1-c1ccc(C(=O)N2Cc3ccc(C(=O)N(C)CCc4ccccn4)n3Cc3ccccc32)cc1C` [Example 66, 10-[(2,2′-Dimethyl-[1,1′-biphenyl]-4-yl)carbonyl]-N-methyl-N-[2-(2-pyridinyl)ethyl]-10,11-dihydro-5H-pyrrolo[2,1-c][1,4]benzodiazepine-3-carboxamide], the inhibition at 0.1 µM was 24%. The same measure, in the same setting: for `COc1ccccc1-c1ccc(C(=O)N2Cc3ccc(C(=O)N(C)CCc4ccccn4)n3Cc3ccccc32)cc1` [Example 67, 10-[(2′-Methoxy-[1,1′-biphenyl]-4-yl)carbonyl]-N-methyl-N-[2-(2-pyridinyl)ethyl]-10,11-dihydro-5H-pyrrolo[2,1-c][1,4]benzodiazepine-3-carboxamide] the value was 24%.

In turn, `Cc1ccccc1-c1ccc(C(=O)N2Cc3ccc(C(=O)N(C)CCc4ccccn4)n3Cc3ccccc32)cc1` [Example 68, N-Methyl-10-[(2′-methyl-[1,1′-biphenyl]-4-yl)carbonyl]-N-[2-(2-pyridinyl)ethyl]-10,11-dihydro-5H-pyrrolo[2,1-c][1,4]benzodiazepine-3-carboxamide] came in with an inhibition at 0.1 µM of 13%. Same read-out and setting: the figure for `COc1cc(C(=O)N2Cc3ccc(C(=O)N(C)CCc4ccccn4)n3Cc3ccccc32)ccc1-c1ccccc1C` [Example 69, 10-[(2-Methoxy-2′-methyl-[1,1′-biphenyl]-4-yl)carbonyl]-N-methyl-N-[2-(2-pyridinyl)ethyl]-10,11-dihydro-5H-pyrrolo[2,1-c][1,4]benzodiazepine-3-carboxamide] is 15%.

The compound `COc1cccc(-c2cc(OC)c(C(=O)N3Cc4ccc(C(=O)N(C)CCc5ccccn5)n4Cc4ccccc43)cc2Cl)c1` [Example 70, 10-[(6-Chloro-3,3′-dimethoxy-[1,1′-biphenyl]-4-yl)carbonyl]-N-methyl-N-[2-(2-pyridinyl)ethyl]-10,11-dihydro-5H-pyrrolo[2,1-c][1,4]benzodiazepine-3-carboxamide] registered an inhibition at 0.1 µM of 10%. In turn, `COc1cc(C(=O)N2Cc3ccc(C(=O)N(C)CCc4ccccn4)n3Cc3ccccc32)ccc1-c1cccc2ccccc12` [Example 71, 10-[3-Methoxy-4-(naphthalen-1-yl)benzoyl]-N-methyl-N-[2-(2-pyridinyl)ethyl]-10,11-dihydro-5H-pyrrolo[2,1-c][1,4]benzodiazepine-3-carboxamide] yielded an inhibition at 0.1 µM of 24%.

In the case of `COc1cccc(-c2ccc(C(=O)N3Cc4ccc(C(=O)N(C)CCc5ccccn5)n4Cc4ccccc43)cc2OC)c1` [Example 72, 10-[(2,3′-Dimethoxy-[1,1′-biphenyl]-4-yl)carbonyl]-N-methyl-N-[2-(2-pyridinyl)ethyl]-10,11-dihydro-5H-pyrrolo[2,1-c][1,4]benzodiazepine-3-carboxamide], the inhibition at 0.1 µM worked out at 11%. Still for that read-out and setting: the figure for `CN(CCc1ccccn1)C(=O)c1ccc2n1Cc1ccccc1N(C(=O)c1ccc(-c3cccc4ccccc34)cc1Cl)C2` [Example 73, 10-[2-Chloro-4-(naphthalen-1-yl)benzoyl]-N-methyl-N-[2-(2-pyridinyl)ethyl]-10,11-dihydro-5H-pyrrolo[2,1-c][1,4]benzodiazepine-3-carboxamide] is 16%. The compound `Cc1cc(C(=O)N2Cc3ccc(C(=O)N(C)CCc4ccccn4)n3Cc3ccccc32)ccc1-c1ccccc1C(F)(F)F` [Example 74, N-Methyl-10-{[2-methyl-2′-trifluoromethyl-[1,1′-biphenyl]-4-yl]carbonyl}-N-[2-(2-pyridinyl)ethyl]-10,11-dihydro-5H-pyrrolo[2,1-c][1,4]benzodiazepine-3-carboxamide] came in with an inhibition at 0.1 µM of 1%. In the case of `COc1ccccc1-c1ccc(C(=O)N2Cc3ccc(C(=O)N4CCN(c5ccccn5)CC4)n3Cc3ccccc32)cc1C` [Example 75, {10-[(2′-Methoxy-2-methyl-[1,1′-biphenyl]-4-yl)carbonyl]-10,11-dihydro-5H-pyrrolo[2,1-c][1,4]benzodiazepin-3-yl}[4-(2-pyridinyl)-1-piperazinyl]methanone], the inhibition at 0.1 µM was found to be 9%. Same read-out and setting: the figure for `Cc1ccccc1-c1ccc(C(=O)N2Cc3ccc(C(=O)N4CCN(c5ccccn5)CC4)n3Cc3ccccc32)cc1C` [Example 76, {10-[(2,2′-Dimethyl-[1,1′-biphenyl]-4-yl)carbonyl]-10,11-dihydro-5H-pyrrolo[2,1-c][1,4]benzodiazepin-3-yl}[4-(2-pyridinyl)-1-piperazinyl]methanone] is 21%; for `COc1cccc(-c2ccc(C(=O)N3Cc4ccc(C(=O)N5CCN(c6ccccn6)CC5)n4Cc4ccccc43)cc2C)c1` [Example 77, {10-[(3′-Methoxy-2-methyl-[1,1′-biphenyl]-4-yl)carbonyl]-10,11-dihydro-5H-pyrrolo[2,1-c][1,4]benzodiazepin-3-yl}[4-(2-pyridinyl)-1-piperazinyl]methanone] it is 10%; for `COc1ccccc1-c1ccc(C(=O)N2Cc3ccc(C(=O)N4CCN(c5ccccn5)CC4)n3Cc3ccccc32)cc1` [Example 78, {10-[(2′-Methoxy-[1,1′-biphenyl]-4-yl)carbonyl]-10,11-dihydro-5H-pyrrolo[2,1-c][1,4]benzodiazepin-3-yl}[4-(2-pyridinyl)-1-piperazinyl]methanone] it is 8%. The same measure, in the same setting: the figure for `Cc1ccccc1-c1ccc(C(=O)N2Cc3ccc(C(=O)N4CCN(c5ccccn5)CC4)n3Cc3ccccc32)cc1` [Example 79, {10-[(2′-Methyl-[1,1′-biphenyl]-4-yl)carbonyl]-10,11-dihydro-5H-pyrrolo[2,1-c][1,4]benzodiazepin-3-yl}[4-(2-pyridinyl)-1-piperazinyl]methanone] is 10%.

The same experiment, now with this note: value in parentheses.
Broadly, the IC50 is the concentration needed to halve the response being measured. Turning to `Cc1cc(C(=O)N2Cc3ccc(C(=O)N4CCN(Cc5ccc[n+]([O-])c5)CC4)n3Cc3ccccc32)ccc1-c1ccccc1C(F)(F)F` [Example 2, 10-{[2-Methyl-2′-trifluoromethyl-[1,1′-biphenyl]-4-yl]carbonyl}-3-({4-[(1-oxidopyridin-3-yl)methyl]piperazin-1-yl}carbonyl)-10,11-dihydro-5H-pyrrolo[2,1-c][1,4]benzodiazepine], the IC50 was determined as 1420 nM.

Regarding `Cc1cc(C(=O)N2Cc3ccc(C(=O)N4CCN(Cc5ccc[n+]([O-])c5C)CC4)n3Cc3ccccc32)ccc1-c1ccccc1C(F)(F)F` [Example 3, 3-({4-[(2-Methyl-1-oxidopyridin-3-yl)methyl]piperazin-1-yl}carbonyl)-10-{[2-methyl-2′-trifluoromethyl-[1,1′-biphenyl]-4-yl]carbonyl}-10,11-dihydro-5H-pyrrolo[2,1-c][1,4]benzodiazepine], the IC50 is greater than 3000 nM.

As to `Cc1cc(C(=O)N2Cc3ccc(C(=O)N(C)Cc4ccc[n+]([O-])c4)n3Cc3ccccc32)ccc1-c1ccccc1C(F)(F)F` [Example 4, N-Methyl-10-{[2-methyl-2′-trifluoromethyl-[1,1′-biphenyl]-4-yl]carbonyl}-N-[(1-oxidopyridin-3-yl)methyl]-10,11-dihydro-5H-pyrrolo[2,1-c][1,4]benzodiazepine-3-carboxamide], the IC50 turned out to be 464 nM.

Take `COc1cc(-c2ccccc2C(F)(F)F)c(Cl)cc1C(=O)N1Cc2ccc(C(=O)N(C)Cc3cccnc3)n2Cc2ccccc21` [Example 5, 10-{[6-Chloro-3-methoxy-2′-trifluoromethyl-[1,1′-biphenyl]-4-yl]carbonyl}-N-methyl-N-(pyridin-3-ylmethyl)-10,11-dihydro-5H-pyrrolo[2,1-c][1,4]benzodiazepine-3-carboxamide]: the IC50 was found to be 433 nM.

As for `COc1cc(-c2ccccc2Cl)c(Cl)cc1C(=O)N1Cc2ccc(C(=O)N(C)Cc3cccnc3)n2Cc2ccccc21` [Example 6, 10-[(2′,6-Dichloro-3-methoxy-[1,1′-biphenyl]-4-yl)carbonyl]-N-methyl-N-(pyridin-3-ylmethyl)-10,11-dihydro-5H-pyrrolo[2,1-c][1,4]benzodiazepine-3-carboxamide], the IC50 came out at 309 nM.

As for `COc1cc(C(=O)N2Cc3ccc(C(=O)N(C)Cc4cccnc4)n3Cc3ccccc32)ccc1-c1ccccc1C(F)(F)F` [Example 7, 10-{[2-Methoxy-2′-trifluoromethyl-[1,1′-biphenyl]-4-yl]carbonyl}-N-methyl-N-(pyridin-3-ylmethyl)-10,11-dihydro-5H-pyrrolo[2,1-c][1,4]benzodiazepine-3-carboxamide], the half-inhibitory concentration (IC50) was 407 nM.

Regarding `COc1cc(C(=O)N2Cc3ccc(C(=O)N(C)Cc4ccc[n+]([O-])c4)n3Cc3ccccc32)ccc1-c1ccccc1C(F)(F)F` [Example 8, 10-{[2-Methoxy-2′-trifluoromethyl-[1,1′-biphenyl]-4-yl]carbonyl}-N-methyl-N-(1-oxo-pyridin-3-ylmethyl)-10,11-dihydro-5H-pyrrolo[2,1-c][1,4]benzodiazepine-3-carboxamide], the half-inhibitory concentration (IC50) is 237 nM.

`COc1cccc(-c2ccc(C(=O)N3Cc4ccc(C(=O)N(C)CCc5ccccn5)n4Cc4ccccc43)cc2C)c1` [Example 62, 10-[(3′-Methoxy-2-methyl-[1,1′-biphenyl]-4-yl)carbonyl]-N-methyl-N-[2-(2-pyridinyl)ethyl]-10,11-dihydro-5H-pyrrolo[2,1-c][1,4]benzodiazepine-3-carboxamide]: the IC50 is 1490 nM. Still for that read-out and setting: the figure for `COc1cc(-c2ccccc2C)c(Cl)cc1C(=O)N1Cc2ccc(C(=O)N(C)CCc3ccccn3)n2Cc2ccccc21` [Example 63, 10-[(6-Chloro-3-methoxy-2′-methyl-[1,1′-biphenyl]-4-yl)carbonyl]-N-methyl-N-[2-(2-pyridinyl)ethyl]-10,11-dihydro-5H-pyrrolo[2,1-c][1,4]benzodiazepine-3-carboxamide] is 714 nM.
